Results as given in US20110190235A1, “BORON-CONTAINING SMALL MOLECULES AS ANTIPROTOZOAL AGENTS” (Anacor Pharmaceuticals, Inc., priority 2009, published 2011).
In brackets after ≈: the same amount, converted by molar mass. Where two headings read alike, the source gives them in different places.

What was measured:
[1] = test system: bloodstream-form trypanosome T. brucei brucei 427 strain; experiment: Trypanosoma brucei brucei high-throughput in vitro drug sensitivity assay (resazurin); type: cell-based; conditions: for IC50: Trypanosoma brucei, 72 hrs incubation; for Selectivity Index (L929 IC50 / T. b. brucei IC50): T. b. brucei vs L929
[2] = L929 cytotoxicity evaluation (resazurin); type: cell-based; conditions: mouse, L929 mouse fibroblast cells; 72 hrs incubation; read-out: Cytotox L-929 IC50
Method: For evaluation of compound effects on mammalian cells, L929 mouse fibroblast cells were used. Cells were maintained as adherent cultures in T-25 vented cap flasks in a humidified incubator at 37° C. in the presence of 5% CO2. Culture media was D-MEM supplemented with 10% fetal bovine serum and 1% penicillin/streptomycin. L929 cells were maintained below confluent levels by sub-culturing at 1:10 dilution twice weekly using 0.05% trypsin for detachment.
Sub-confluent L929 cells were trypsinized, resuspended in fresh media and 10 uL was counted using hemocytometer to determine cell concentration. Cells were diluted to 1×10^4/mL in DMEM, dispensed (100 uL) into 96-well plates using a Multidrop 384 dispenser and allowed to attach overnight. Spent media was replaced with 99.5 uL fresh D-MEM and compounds to be tested were serially diluted in DMSO and 0.5 uL added using a Biomek NX liquid handler. Plates were incubated with compounds for 72 hrs at 37° C. with 5% CO2. Resazurin (20 uL of 12.5 mg/ml stock) from Sigma-Aldrich was added to each well and plates were incubated for an additional 3-4 hrs. Assay plates were read using an EnVision plate reader at an excitation wavelength of 544 nm and emission of 590 nm. Single data points were used to generate sigmoidal dose response curves and determine IC50 values using XLfit curve fitting software from IDBS (Guildford, UK).

SMILES	IC50 ([1]; read-out: T.b. brucei IC50)	IC50 at 72 h [2]	Selectivity Index (L929 IC50 / T. b. brucei IC50) [1]	IC50 ([1]; read-out: T. b. brucei IC50)
Cc1ccc(C(=O)Nc2ccc3c(c2)B(O)OC3(C)C)c(Cl)c1 [compound 89, 2-Chloro-N-(1-hydroxy-3,3-dimethyl-1,3-dihydro-benzo[c][1,2]oxaborol-6-yl)-4-methyl-benzamide]	0.152 µg/mL	> 10 µg/mL		
O=C(Nc1ccc2c(c1)B(O)OC21CCCC1)c1ccccc1Cl [compound 137, 2-Chloro-N-(1-hydroxy-3,3-spirocyclopentyl′-1,3-dihydro-benzo[c][1,2]oxaborol-6-yl)-benzamide]	3.62 µg/mL	> 10 µg/mL	>3	10.6 µM
CC1(C)OB(O)c2cc(NC(=O)c3ccccc3OC(F)(F)F)ccc21 [compound 51, N-(1-Hydroxy-3,3-dimethyl-1,3-dihydro-benzo[c][1,2]oxaborol-6-yl)-2-trifluoromethoxy-benzamide]	1.15 µg/mL	> 10 µg/mL		
CC1(C)OB(O)c2cc(NC(=O)c3ccc(Cl)cc3F)ccc21 [compound 71, 4-Chloro-2-fluoro-N-(1-hydroxy-3,3-dimethyl-1,3-dihydro-benzo[c][1,2]oxaborol-6-yl)-benzamide]	0.697 µg/mL	> 10 µg/mL		
Cc1occc1C(=O)Nc1ccc2c(c1)B(O)OC2(C)C [compound 121, 2-Methyl-furan-3-carboxylic acid (1-hydroxy-3,3-dimethyl-1,3-dihydro-benzo[c][1,2]oxaborol-6-yl)-amide]	3.2 µg/mL	> 10 µg/mL		
CC1(C)OB(O)c2cc(NC(=O)c3cccc(Cl)c3Cl)ccc21 [compound 66, 2,3-Dichloro-N-(1-hydroxy-3,3-dimethyl-1,3-dihydro-benzo[c][1,2]oxaborol-6-yl)-benzamide]	0.292 µg/mL	> 10 µg/mL		
CC1(C)OB(O)c2cc(NC(=O)c3cccnc3)ccc21 [compound 115, N-(1-Hydroxy-3,3-dimethyl-1,3-dihydro-benzo[c][1,2]oxaborol-6-yl)-nicotinamide]	> 5 µg/mL	> 10 µg/mL		
CC1(C)OB(O)c2cc(NC(=O)c3cc(C(F)(F)F)ccc3C(F)(F)F)ccc21 [compound 81, N-(1-Hydroxy-3,3-dimethyl-1,3-dihydro-benzo[c][1,2]oxaborol-6-yl)-2,5-bis-trifluoromethyl-benzamide]	0.183 µg/mL	> 10 µg/mL		
CC1(C)OB(O)c2cc(NC(=O)c3ccc(F)cc3F)ccc21 [compound 63, 2,4-Difluoro-N-(1-hydroxy-3,3-dimethyl-1,3-dihydro-benzo[c][1,2]oxaborol-6-yl)-benzamide]	2.66 µg/mL	> 10 µg/mL	>4	8.39 µM
COc1ccccc1C(=O)Nc1ccc2c(c1)B(O)OC2(C)C [compound 46, N-(1-Hydroxy-3,3-dimethyl-1,3-dihydro-benzo[c][1,2]oxaborol-6-yl)-2-methoxy-benzamide]	3.01 µg/mL	> 10 µg/mL		
CC(C)Cc1ccc(C(=O)Nc2ccc3c(c2)B(O)OC3(C)C)c(Cl)c1 [compound 103]	0.184 µg/mL	> 10 µg/mL		
CC1(C)OB(O)c2cc(NC(=O)c3ccccc3I)ccc21 [compound 40, N-(1-Hydroxy-3,3-dimethyl-1,3-dihydro-benzo[c][1,2]oxaborol-6-yl)-2-iodo-benzamide]	0.599 µg/mL	> 10 µg/mL		
Cc1ccccc1C(=O)Nc1ccc2c(c1)B(O)OC2(C)C [compound 27, N-(1-Hydroxy-3,3-dimethyl-1,3-dihydro-benzo[c][1,2]oxaborol-6-yl)-2-methylbenzamide]	2.24 µg/mL	> 10 µg/mL		
CC1(C)OB(O)c2cc(NC(=O)c3c(F)cccc3C(F)(F)F)ccc21 [compound 86, 2-Fluoro-N-(1-hydroxy-3,3-dimethyl-1,3-dihydro-benzo[c][1,2]oxaborol-6-yl)-6-trifluoromethyl-benzamide]	0.425 µg/mL	> 10 µg/mL		
O=C(Nc1ccc2c(c1)B(O)OC2C1CCCC1)c1ccc(F)cc1 (stereo not shown) [compound 20, N-(3-Cyclopentyl-1-hydroxy-1,3-dihydro-benzo[c][1,2]oxaborol-6-yl)-4-fluoro-benzamide]	> 5 µg/mL	> 10 µg/mL		> 14.5 µM
CCCCc1ccc(C(=O)Nc2ccc3c(c2)B(O)OC3(C)C)cc1 [compound 32, 4-Butyl-N-(1-hydroxy-3,3-dimethyl-1,3-dihydro-benzo[c][1,2]oxaborol-6-yl)-benzamide]	0.349 µg/mL	> 10 µg/mL		

SMILES	IC50 ([1]; read-out: T.b. brucei IC50)	IC50 at 72 h [2]	Selectivity Index (L929 IC50 / T. b. brucei IC50) [1]	IC50 ([1]; read-out: T. b. brucei IC50)
COc1ccc(C(=O)Nc2ccc3c(c2)B(O)OC3(C)C)cc1 [compound 48, N-(1-Hydroxy-3,3-dimethyl-1,3-dihydro-benzo[c][1,2]oxaborol-6-yl)-4-methoxy-benzamide]	1.11 µg/mL	> 10 µg/mL	>9	3.57 µM
CC(=O)Nc1ccc(C(=O)Nc2ccc3c(c2)B(O)OC3(C)C)cc1 [compound 59, 4-Acetylamino-N-(1-hydroxy-3,3-dimethyl-1,3-dihydro-benzo[c][1,2]oxaborol-6-yl)-benzamide]	1.61 µg/mL	> 10 µg/mL		
COc1cccc(C(=O)Nc2ccc3c(c2)B(O)OC3(C)C)c1 [compound 47, N-(1-Hydroxy-3,3-dimethyl-1,3-dihydro-benzo[c][1,2]oxaborol-6-yl)-3-methoxy-benzamide]	2.35 µg/mL	> 10 µg/mL		
CC1(C)OB(O)c2cc(NC(=O)c3ccncc3)ccc21 [compound 116, N-(1-Hydroxy-3,3-dimethyl-1,3-dihydro-benzo[c][1,2]oxaborol-6-yl)-isonicotinamide]	> 5 µg/mL	> 10 µg/mL		
CC1OB(O)c2cc(NC(=O)c3cccc(Cl)c3)ccc21 (stereo not shown) [compound 11, 3-Chloro-N-(1-hydroxy-3-methyl-1,3-dihydro-benzo[c][1,2]oxaborol-6-yl)-benzamide]	0.036 µg/mL	6.06 µg/mL (≈ 20.1 µM)	168	0.119 µM
CC1(C)OB(O)c2cc(NC(=O)c3cccc4cccnc34)ccc21 [compound 113, Quinoline-8-carboxylic acid (1-hydroxy-3,3-dimethyl-1,3-dihydro-benzo[c][1,2]oxaborol-6-yl)-amide]	> 5 µg/mL	> 10 µg/mL		
CC1(C)OB(O)c2cc(NC(=O)c3ccc(C(F)(F)F)cc3C(F)(F)F)ccc21 [compound 79, N-(1-Hydroxy-3,3-dimethyl-1,3-dihydro-benzo[c][1,2]oxaborol-6-yl)-2,4-bis-trifluoromethyl-benzamide]	1.1 µg/mL	> 10 µg/mL		
CCOc1ccccc1C(=O)Nc1ccc2c(c1)B(O)OC2(C)C [compound 49, 2-Ethoxy-N-(1-hydroxy-3,3-dimethyl-1,3-dihydro-benzo[c][1,2]oxaborol-6-yl)-benzamide]	> 5 µg/mL	> 10 µg/mL		
C=CCc1ccc(C(=O)Nc2ccc3c(c2)B(O)OC3(C)C)c(Cl)c1 [compound 98, 4-Allyl-2-chloro-N-(1-hydroxy-3,3-dimethyl-1,3-dihydro-benzo[c][1,2]oxaborol-6-yl)-benzamide]	0.091 µg/mL	> 10 µg/mL		
Cc1cc(C(=O)Nc2ccc3c(c2)B(O)OC3(C)C)c(C)o1 [compound 122, 2,5-Dimethyl-furan-3-carboxylic acid (1-hydroxy-3,3-dimethyl-1,3-dihydro-benzo[c][1,2]oxaborol-6-yl)-amide]	> 5 µg/mL	> 10 µg/mL		
CC1(C)OB(O)c2cc(NC(=O)c3ccc4ccccc4n3)ccc21 [compound 117, Quinoline-2-carboxylic acid (1-hydroxy-3,3-dimethyl-1,3-dihydro-benzo[c][1,2]oxaborol-6-yl)-amide]	1.55 µg/mL	> 10 µg/mL		
CC1(C)OB(O)c2cc(NC(=O)c3c(F)c(F)c(F)c(F)c3F)ccc21 [compound 110, 2,3,4,5,6-Pentafluoro-N-(1-hydroxy-3,3-dimethyl-1,3-dihydro-benzo[c][1,2]oxaborol-6-yl)-benzamide]	> 5 µg/mL	> 10 µg/mL		
COc1cccc(OC)c1C(=O)Nc1ccc2c(c1)B(O)OC2(C)C [compound 96, N-(1-Hydroxy-3,3-dimethyl-1,3-dihydro-benzo[c][1,2]oxaborol-6-yl)-2,6-dimethoxy-benzamide]	2.72 µg/mL	> 10 µg/mL		
CC1(C)OB(O)c2cc(NC(=O)c3ccc([N+](=O)[O-])cc3)ccc21 [compound 56, N-(1-Hydroxy-3,3-dimethyl-1,3-dihydro-benzo[c][1,2]oxaborol-6-yl)-4-nitro-benzamide]	> 5 µg/mL	> 10 µg/mL		
CC1(C)OB(O)c2cc(NC(=O)C3CCC3)ccc21 [compound 127, Cyclobutanecarboxylic acid (1-hydroxy-3,3-dimethyl-1,3-dihydro-benzo[c][1,2]oxaborol-6-yl)-amide]	2.85 µg/mL	> 10 µg/mL		
CC1(C)OB(O)c2cc(NC(=O)C3CCCCC3)ccc21 [compound 129, Cyclohexanecarboxylic acid (1-hydroxy-3,3-dimethyl-1,3-dihydro-benzo[c][1,2]oxaborol-6-yl)-amide]	> 5 µg/mL	> 10 µg/mL		
